The values below come from article PMC7053198 (Theranostics, 2020).

The subject of this experiment is A375Pβ6 cells. The settings on record: A375Pβ6, αvβ6 positive; 72 h treatment, MTT assay; ±SD, n=3.

`COc1cc2c(cc1OCCCCCOc1cc3c(cc1OC)C(=O)N1C=C(C)C[C@H]1C=N3)N=C[C@@H]1CC(C)=CN1C2=O` [SG3199, reference compound] had an IC50 of 110 ± 80 pM.
